The text below walks through data of patent US20080248008A1, “Inhibitors of Protein Kinase a Anchoring” (priority 2004, published 2008).

The series relates to human peripheral blood T cells. Kind of series: Flow cytometry of cell death/apoptosis in activated T cells. The series is classed as cell-based. The protocol:
Flow cytometry. Negatively selected CD3^+ T cells cultured in flat-bottom, 96-well plates (Costar; 0.2×10^6 cells/well) were activated with OKT-3 (4 ng/μl) for […] at 37° C., crosslinked with F(ab′)2 fragments (39 μg/ml) and thereafter incubated with arginine-coupled peptides at 0-50 μM. For analyzing the DNA content, the cells were incubated further for 36-40 hours and thereafter washed in PBS, fixed in […], permeabilized in FACS Permeabilizing Solution (BD BioSciences, San Jose, Calif.) for 10 min and washed in PBS containing 1% BSA and 100 μg/ml RNase prior to being stained with propidium iodide (PI, Cat. No. 51-66211E BD Biosciences Pharmingen, San Diego, Calif., USA) (25 μg/ml) for 15 min 37° C. The cells were washed twice in PBS and fixed in 1% paraformaldehyde before flow cytometry (FACSCalibur, BD Biosciences, San Jose, Calif.) and subsequent analysis using FlowJo software (Tree Star, San Carlos, Calif.). For analyzing apoptosis and necrosis, the cells were incubated further for 18 hours and thereafter washed in PBS, fixed in 1% paraformaldehyde and washed with annexin binding buffer (Cat. No. 51-66121E, BD Biosciences) prior to being stained with Annexin V (3 μl to 50 μl volume, Cat. No. 556419, BD Biosciences Pharmingen) and PI (3 μg/ml) for 20 min on ice. The cells were washed twice in PBS and fixed in 1% paraformaldehyde before being analyzed on a flow cytometer (FACSCalibur, BD Biosciences, San Jose, Calif.) and analyzed using FlowJo software (Tree Star, San Carlos, Calif.).
To test whether MEME3-Arg11 induces cell death or apoptosis in human peripheral blood T cells, activated T cells treated with increasing doses of MEME3-Arg11 were analysed by forward scatter/sideward scatter (FSC/SSC) in a fluorescence-activated cell sorter (FACS). […] Apoptosis was also assessed by Annexin V^FITC labeling under the same experimental conditions. […] The effect of the peptides on cellular DNA content was also measured by flow cytometry after permeabilization of the fixed cells and PI-staining.
Cell death was also analysed by monitoring PS externalization by Annexin V binding and destruction of the cellular membrane by PI staining using FACS.

[1] abbreviates: activated T cells, increasing doses.

Regarding “LEQYANQLADQIIKEATERRRRRRRRRrr [MEME3-Arg11]”, under setting [1], the “annexin V binding” value is “no increase in annexin V binding, but rather a small decrease” and the “morphological changes (FSC/SSC)” value is “no morphological changes characteristic of apoptosis”. The “late apoptotic cells (AV+/PI+)” value (overnight) is recorded as “No late apoptotic cells (AV+/PI+) were detected”. In addition, the “DNA content (aneuploidity), PI-staining” value (permeabilized fixed cells) is recorded as “No change in DNA content”.
